The values below come from US20160115188A1, “NOVEL alpha-GALACTOSYL CERAMIDE ANALOGS AND USES THEREOF” (Chang Gung Memorial Hospital, Linkou, priority 2014, published 2016).

One data set has as its system Human iNKT cells. Briefly: Cytokine production of human iNKT cells co-cultured with compound-loaded dendritic cells (Luminex). The following applies: for ratio of IL-4/IFN-γ / ratio of IL-10/IFN-γ: human iNKT cells with compound-loaded dendritic cells, Th2 skewing; for GM-CSF level induced / IFN-γ level induced / IL-10 level induced / IL-2 level induced / IL-4 level induced: dendritic cells loaded with 1 μM compound, cultured with iNKT cells for 3 days, mean±SD. The class given is cell-based. The procedure:
The immune response elicited by Compounds 1 and 2a-2i in human NKT cells was evaluated using human dendritic cell (DC).
Method: Human iNKT cells were isolated with anti-TCR Vα24 antibody and cultured for 7 days in the presence of IL-2 (1 μg/mL). The dendritic cells were generated from CD14+ cells, sorted from peripheral blood mononuclear cells (PBMC) by incubating PBMC for 7 days with GM-CSF (50 ng/mL) and IL-4 (50 ng/mL). Dendritic cells were loaded with the following: 1 μM of Compound 1 or 1 μM of Compounds 2a-2i, and cultured with iNKT cells for 3 days. The culture supernatants were collected and analyzed for various cytokines production by Luminex. Data were presented as mean±SD and analyzed by one-way ANOVA.
The ratios of IL-4/IFN-γ and IL-10/IFN-γ were used evaluate if the immune response elicited by Compounds 1 and 2a-2i was skewed toward Th2 mediated response.

The nature of data set [1]: Solubility noted during characterisation. The following applies: room temperature; prevented optical rotation measurement. It is filed as physicochemical.
In another data set the test system is mNK1.2 cells. Nature of the data set: Induction of IL-2 in mNK1.2 cells cultured with compound-loaded A20-CD1d cells (ELISA). The class given is cell-based, murine. The conditions noted are these: cultured with mNK1.2 cells, supernatant after 72 hours. The protocol:
The immune response elicited by Compounds 1 and 2a-2i was assessed by the induction of IL-2 in mNK1.2 cells. Compound 1 is illustrated by the following formula: […]
Method: A20-CD 1d cells were loaded with Compound 1 (α-GalCer) and Compounds 2a-2i, and cultured with mNK1.2 cells. Supernatants were collected after 72 hours to determine the production of IL-2 by ELISA.
For orientation: An ELISA detects its analyte on a solid surface through an enzyme-linked reagent.

The mark [2] stands for this setting: in words, relative to Compound 1.

On to `CCCCCCCCCCCCCCCCCCCCCCCC(=O)N[C@@H](COC1OC(CO)C(O)C(O)C1O)[C@H](O)[C@H](O)CCCCC` (some centres unmarked) [OCH, reference compound], for which, in the data set on Human iNKT cells, the “ratio of IL-4/IFN-γ” value stood at 0.25 and the “ratio of IL-10/IFN-γ” value was 0.26.

Usually melting point stands for the temperature of the solid-liquid transition. `CCCCCCCCCCCCCCCCCCCCCCCCCC(=O)N[C@@H](CO[C@H]1OC(COP(=O)(O)O)[C@H](O)C(O)C1O)[C@H](O)[C@H](O)CCCCCCCCCCCCCC` (stereo partly drawn) [Compound 2g, (2S,3S,4R)-1-O-(6-O-phospho-α-D-galactopyranosyl)-D-ribo-2-hexacosanoylamino-1,3,4-oc-tadecantriol, phosphoric acid] returned a melting point of 182 °C. For the same molecule, in the data set on Human iNKT cells, the GM-CSF level induced amounted to 1350 ± 146.2 pg/mL, the IFN-γ level induced came out at 2704 ± 10.3 pg/mL and the IL-10 level induced is 2010 ± 325.1 pg/mL.

Regarding `CCCCCCCCCCCCCCCCCCCCCCCCCC(=O)N(C)[C@@H](CO[C@H]1OC(COC)[C@H](O)[C@H](O)C1O)[C@H](O)[C@H](O)CCCCCCCCCCCCCC` (stereo partly drawn) [Compound 2a, (2S,3S,4R)-1-O-(6-O-methyl-α-D-galactopyranosyl)-D-ribo-2-N-methyl-hexacosanoylamino-1,3,4-octadecantriol], the melting point lay in the range of 64 to 66 °C. For the same molecule, in the data set with Human iNKT cells, the “ratio of IL-4/IFN-γ” value is given as 0.032±0.0009 and the “ratio of IL-10/IFN-γ” value is 0.63±0.07.

Turning to `CCCCCCCCCCCCCCCCCCCCCCCCCC(=O)N[C@@H](CO[C@H]1O[C@H](COCCCCCCCCCCCC)[C@H](O)[C@H](O)[C@H]1O)[C@H](O)[C@H](O)CCCCCCCCCCCCCC` [Compound 2d, (2S,3S,4R)-1-O-(6-O-dodecyl-α-D-galactopyranosyl)-D-ribo-2-hexacosanoylamino-1,3,4-oct-adecantriol], in the data set on Human iNKT cells, the IL-2 level induced was found to be 33.8 ± 0.2 pg/mL, the IL-4 level induced was 191.5 ± 35.3 pg/mL, the “ratio of IL-4/IFN-γ” value turned out to be 0.331±0.074 and the “ratio of IL-10/IFN-γ” value was 0.83±0.1.

Consider `CCCCCCCCCCCCCCCCCCCCCCCCCC(=O)N[C@@H](CO[C@H]1OC(COS(=O)(=O)[O-])[C@H](O)C(O)C1O)[C@H](O)[C@H](O)CCCCCCCCCCCCCC.[Na+]` (stereo partly drawn) [Compound 2h, (2S,3S,4R)-1-O-(6-O-sulfo-α-D-galactopyranosyl)-D-ribo-2-hexacosanoylamino-1,3,4-octadecantriol, sodium salt], for which, in the data set on Human iNKT cells, the GM-CSF level induced was 2024 ± 108.4 pg/mL, the IFN-γ level induced was found to be 2739 ± 14.52 pg/mL, the IL-2 level induced came to 60.3 ± 24.4 pg/mL and the IL-4 level induced was 113.9 ± 28.4 pg/mL.

Consider `CCCCCCCCCCCCCCCCCCCCCCCCCC(=O)N[C@@H](CO[C@H]1O[C@H](COCCCCCC)[C@H](O)[C@H](O)[C@H]1O)[C@H](O)[C@H](O)CCCCCCCCCCCCCC` [Compound 2c, (2S,3S,4R)-1-O-(6-O-hexyl-α-D-galactopyranosyl)-D-ribo-2-hexacosanoylamino-1,3,4-octa-decantriol], for which, in the data set with Human iNKT cells, the “ratio of IL-4/IFN-γ” value amounted to 0.044±0.011 and the “ratio of IL-10/IFN-γ” value is recorded as 0.91±0.26.

Turning to `CCCCCCCCCCCCCCCCCCCCCCCCCC(=O)N[C@@H](CO[C@H]1O[C@H](COCCCCCCCCCCCCCCCCCCCC)[C@H](O)[C@H](O)[C@H]1O)[C@H](O)[C@H](O)CCCCCCCCCCCCCC` [Compound 2f, (2S,3S,4R)-1-O-(6-O-eicosanyl-α-D-galactopyranosyl)-D-ribo-2-hexacosanoylamino-1,3,4-oc-tadecantriol], in the data set on Human iNKT cells, the “ratio of IL-4/IFN-γ” value came to 0.093±0.041 and the “ratio of IL-10/IFN-γ” value was 0.69±0.24.

As to `CCCCCCCCCCCCCCCCCCCCCCCCCC(=O)N[C@@H](CO[C@H]1O[C@H](COCCCCCCCCCCCCC)[C@H](O)[C@H](O)[C@H]1O)[C@H](O)[C@H](O)CCCCCCCCCCCCCC` [Compound 2e, (2S,3S,4R)-1-O-(6-O-tridecyl-α-D-galactopyranosyl)-D-ribo-2-hexacosanoylamino-1,3,4-oct-adecantriol], in the data set on Human iNKT cells, the IL-2 level induced came out at 32.5 ± 1.7 pg/mL, the IL-4 level induced amounted to 140.4 ± 6.1 pg/mL, the “ratio of IL-4/IFN-γ” value was determined as 0.246±0.053 and the “ratio of IL-10/IFN-γ” value came to 0.73±0.03.

Turning to `CCCCCCCCCCCCCCCCCCCCCCCCCC(=O)N[C@@H](CO[C@H]1OC(CN)[C@H](O)C(O)C1O)[C@H](O)[C@H](O)CCCCCCCCCCCCCC` (stereo partly drawn) [Compound 2i, (2S,3S,4R)-1-O-(6-amine-α-D-galactopyranosyl)-D-ribo-2-hexacosanoylamino-1,3,4-octadecantriol], the melting point was in the range of 187 to 188 °C. Besides, in the data set on Human iNKT cells, the IFN-γ level induced is 2687 ± 89.4 pg/mL and the IL-10 level induced was 2001 ± 46.8 pg/mL. Further, in the data set on Human iNKT cells (setting [2]), the “level of IFN-γ compared to Compound 1” value is “comparable level”, the “level of IL-4 compared to Compound 1” value is reported as “lower level” and the “ratio of IL-4/IFN-γ compared to Compound 1” value is reported as “lower ratio”. Also, the solubility result in data set [1] is given as “poor solubility”.

In the case of `CCCCCCCCCCCCCCCCCCCCCCCCCC(=O)N[C@@H](CO[C@H]1O[C@H](COC)[C@H](O)[C@H](O)[C@H]1O)[C@H](O)[C@H](O)CCCCCCCCCCCCCC` [Compound 2b, (2S,3S,4R)-1-O-(6-O-methyl-α-D-galactopyranosyl)-D-ribo-2-hexacosanoylamino-1,3,4-octa-decantriol], in the data set with Human iNKT cells, the IFN-γ level induced stood at 2286 ± 344.3 pg/mL. Also, the “levels of cytokines induced compared to Compound 1” value in the data set on Human iNKT cells (setting [2]) is recorded as “similar”. Besides, in the data set with mNK1.2 cells, the IL-2 level induced worked out at 13.3 ± 1.3 ng/mL.
